# Experimental data published in patent US11584709B2, “Multitarget drug for treating diseases in mammals” (“PHARMENTERPRISES EURASIA” LIMITED LIABILITY COMPANY, priority 2017, dated 2023).
# Columns and labels:
# [1] = system: imiquimod-induced ear psoriasis; assay: Mouse model of imiquimod-induced ear psoriasis; type: in vivo, female balb/c mice; conditions: for The gain in the thickness of the right (affected) ear relatively day 0: 0.3% ointment, M ± m, n = 10
# Experimental: Psoriasis was simulated in female balb/c mice by applying Aldar cream (5% imiquimod) on the inner side of the right ear daily 1 time per day for 10 days (J Immunol. 2009 May 1; 182(9):5836-45). Vaseline was applied to intact animals: 20 mg on the right ear.
# The assessment of the development of pathology was performed on 2nd, 4th, 6th, 8th and 10th day before the next application of Aldar cream by measuring the thickness of the left and right ears.
# [2] = target: T1, serotonin receptors 5-HT2B (Homo sapiens, UniProt P41595); assay: Activity of serotonin receptors 5-HT2B, CHO cells; type: cell-based; conditions: antagonist, serotonin agonist (30 nM)
# T1 construct: expressed in transfected cells; host or cells: CHO cells
# T1 sequence (P41595 whole entry): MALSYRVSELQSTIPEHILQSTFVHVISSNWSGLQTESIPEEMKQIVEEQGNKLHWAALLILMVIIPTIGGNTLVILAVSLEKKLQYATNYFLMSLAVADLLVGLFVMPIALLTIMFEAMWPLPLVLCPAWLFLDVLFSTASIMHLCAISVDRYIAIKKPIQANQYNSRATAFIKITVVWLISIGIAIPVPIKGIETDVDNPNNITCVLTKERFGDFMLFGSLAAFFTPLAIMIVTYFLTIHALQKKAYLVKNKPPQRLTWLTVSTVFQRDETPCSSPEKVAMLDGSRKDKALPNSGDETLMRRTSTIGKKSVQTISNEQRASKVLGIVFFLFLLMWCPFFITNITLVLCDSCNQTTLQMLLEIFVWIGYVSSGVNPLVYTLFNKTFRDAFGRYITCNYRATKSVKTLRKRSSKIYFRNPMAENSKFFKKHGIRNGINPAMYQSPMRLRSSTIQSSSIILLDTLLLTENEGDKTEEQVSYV
# Experimental: Compound 1 was dissolved in DMSO to a concentration of 100 mM; then a stock solution was serially diluted with DMSO. The maximum starting concentration of the substance is 100 μM. The effect was determined at 5 concentrations of the tested compounds, each concentration was studied twice. CHO cells expressing serotonin receptors 5-HT2B were used in the experiment, these cells, after preincubation with a serotonin agonist (30 nM), were incubated with the test compound. The activity of receptors was determined according to the intracellular calcium concentration of phosphatidylinositol by the homogeneous time resolved fluorescence spectroscopy (Br J Pharmacol. 1999 September; 128(1):13-20).
# [3] = Stability in blood plasma, human; type: in vitro ADME; conditions: 1 μM, 37° C.
# Experimental: (§1) Compound 1 at a concentration of 1 μM was incubated for 24 hours in the blood plasma of human and various animal species (rats, mice, guinea pigs, rabbits, horses, dogs, bull, pygmy hogs) at 37° C. Aliquots were taken at time points of 0, 0.25, 1, 2, 4, 8 and 24 hours. In the case of blood plasma of rabbits and monkeys, Compound 1 was incubated for 4 hours, and aliquots were taken at time points 0, 0.25, 1, 4. After the protein precipitation with acetonitrile, samples were analyzed by HPLC-MS/MS to determine the concentration of Compound 1. Verapamil was used as a stable control.
# [4] = target: T2, prokineticin receptor type 2 (PK2) (Homo sapiens, UniProt Q8NFJ6); assay: Activity of prokineticin receptors type 2 (PK2), intracellular calcium, HEK-293 cells; type: cell-based; conditions: antagonist, PK2 agonist (2 nM)
# T2 construct: expressed in transfected cells; host or cells: HEK-293 cells
# T2 sequence (Q8NFJ6 whole entry): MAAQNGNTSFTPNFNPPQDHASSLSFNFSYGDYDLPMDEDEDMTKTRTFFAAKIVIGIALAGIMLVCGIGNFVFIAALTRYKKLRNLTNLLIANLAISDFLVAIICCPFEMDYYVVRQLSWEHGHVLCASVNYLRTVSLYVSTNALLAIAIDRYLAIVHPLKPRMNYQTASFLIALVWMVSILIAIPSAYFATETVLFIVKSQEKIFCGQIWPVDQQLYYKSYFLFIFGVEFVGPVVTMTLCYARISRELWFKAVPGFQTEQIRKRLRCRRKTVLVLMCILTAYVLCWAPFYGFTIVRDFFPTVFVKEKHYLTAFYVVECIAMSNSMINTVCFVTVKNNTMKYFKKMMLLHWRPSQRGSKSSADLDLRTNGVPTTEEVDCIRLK
# Experimental: Compound 1 was dissolved in DMSO to a concentration of 100 mM; then a stock solution was serially diluted with DMSO. The maximum starting concentration of the substance is 100 μM. The effect was determined at 5 concentrations of the tested compounds, each concentration was studied twice. HEK-293 cells expressing prokinetycin receptors PK2 were used in the experiment, these cells, after preincubation with a PK2 agonist (2 nM), were incubated with the test compound. The activity of receptors was determined according to the intracellular calcium concentration by the fluorescence spectroscopy (Mol Pharmacol. 2005 June; 67(6):2070-6).
# [5] = Stability in blood plasma, guinea pig; type: in vitro ADME; conditions: for Content, % from the initial, Mean (n = 2): guinea pig blood plasma, 1 μM, 37° C.
# Experimental: as §1
# model of Crohn's disease = assay: Mouse model of Crohn's disease (TNBS); type: in vivo, male balb/c mice
# Experimental: The study was performed on male balb/c mice. Animals, which starved for 24 hours, were injected with 150 μl/mouse of TNBS solution in 50% ethanol into the rectal hole of the mouse to the depth of 4 cm using a 3.5 F catheter. Next, the mice were turned upside down and held for 60 seconds. 150 μl of the 50% ethanol solution was injected into the healthy control (intact animals). The study lasted 7 days. The development of pathology was assessed by the death of animals.
# [6] = system: imiquimod-induced psoriasis on the back; assay: Mouse model of imiquimod-induced psoriasis on the back; type: in vivo; conditions: for The gain of the thickness of the back skin to the thickness before the start of the study: 0.3% ointment, M ± m, n = 10
# Experimental: Psoriasis was simulated in female balb/c mice by applying Aldar cream (5% imiquimod) on a previously shaved skin back area of 3×4 cm daily 1 time per day for 15 days (J Immunol. 2009 May 1; 182(9):5836-45). Intact animals were applied with vaseline: 120 mg per the shaved back area.
# The assessment of the development of pathology was performed on the 10th, 12th, 13th and 15th day before the next application of Aldar cream according to the index: the thickness of the skin fold on the back. The thickness of the skin fold on the back was measured with a Digimatic MK-25 micrometer (Mitutoyo, Japan).
# [7] = target: T3, tachykinin receptor type 2 (NK2R) (Homo sapiens, UniProt P21452); assay: Activity of tachykinin receptor type 2 (NK2R), intracellular calcium, CHO cells; type: cell-based; conditions: antagonist, [Nleu10]-NKA-(4-10) (10 nM) agonist
# T3 construct: expressed in transfected cells; host or cells: CHO cells
# T3 sequence (P21452 1-398): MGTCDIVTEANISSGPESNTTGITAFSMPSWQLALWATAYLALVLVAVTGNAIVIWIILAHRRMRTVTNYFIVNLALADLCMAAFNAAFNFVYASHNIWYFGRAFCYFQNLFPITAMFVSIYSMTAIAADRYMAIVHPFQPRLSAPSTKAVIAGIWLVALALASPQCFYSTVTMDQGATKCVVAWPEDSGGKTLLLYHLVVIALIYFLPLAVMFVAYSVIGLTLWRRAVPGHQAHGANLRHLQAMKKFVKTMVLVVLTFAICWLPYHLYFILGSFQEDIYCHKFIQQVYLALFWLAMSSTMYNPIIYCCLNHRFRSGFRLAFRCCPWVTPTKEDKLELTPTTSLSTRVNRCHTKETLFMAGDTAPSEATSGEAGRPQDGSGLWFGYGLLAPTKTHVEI
# Experimental: Compound 1 was dissolved in DMSO to a concentration of 100 mM; then a stock solution was serially diluted with DMSO. The maximum starting concentration of the substance is 100 μM. The effect was determined at 5 concentrations of the tested compounds, each concentration was studied twice. CHO cells expressing NK2R were used in the experiment, said sells, after the preincubation with an [Nleu10]-NKA-(4-10) (10 nM) agonist, were incubated with the test compound. The activity of receptors was determined according to the intracellular calcium concentration by fluorescence spectroscopy (Biochem Biophys Res Commun. 1994 May 16; 200(3):1512-20).
smiles,measurement,setting,value
"O=C(Cc1ccc(O)cc1)N[C@@H](Cc1ccccc1)C(=O)OCc1ccccc1 [Compound 1, benzyl (2S)-2-[2-(4-hydroxyphenyl)acetamido]-3-phenylpropanoate]",The gain in the thickness of the right (affected) ear relatively day 0,[1]; day 2,14.1%
same,The gain in the thickness of the right (affected) ear relatively day 0,[1]; day 4,22.1%
same,The gain in the thickness of the right (affected) ear relatively day 0,[1]; day 6,28.0%
same,The gain in the thickness of the right (affected) ear relatively day 0,[1]; day 8,19.4%
same,The gain in the thickness of the right (affected) ear relatively day 0,[1]; day 10,7.9%
same,reduction of the gain in the thickness of the right (affected) ear (in words),[1]; summary of table 1,to the level of intact animals
same,IC50,[2],8.9 µM
same,"Content, % from the initial, Mean (n = 2)",[3]; 0 hour,100%
same,"Content, % from the initial, Mean (n = 2)",[3]; 0.25 hour,85.4%
same,"Content, % from the initial, Mean (n = 2)",[3]; 1 hour,70.3%
same,"Content, % from the initial, Mean (n = 2)",[3]; 2 hour,50.1%
same,"Content, % from the initial, Mean (n = 2)",[3]; 4 hour,32.1%
same,"Content, % from the initial, Mean (n = 2)",[3]; 8 hour,16.4%
same,"Content, % from the initial, Mean (n = 2)",[3]; 24 hour,0.00%
same,IC50,[4],5.4 µM
same,hydrolysis in the blood plasma (in words),"[5]; blood plasma of guinea pigs, after 15 minutes",almost completely hydrolyzed
same,"Content, % from the initial, Mean (n = 2)",[5]; 0 hour,100%
same,"Content, % from the initial, Mean (n = 2)",[5]; 0.25 hour,0.00%
same,"Content, % from the initial, Mean (n = 2)",[5]; 1 hour,0.00%
same,"Content, % from the initial, Mean (n = 2)",[5]; 2 hour,0.00%
same,"Content, % from the initial, Mean (n = 2)",[5]; 4 hour,0.00%
same,"Content, % from the initial, Mean (n = 2)",[5]; 8 hour,0.00%
same,"Content, % from the initial, Mean (n = 2)",[5]; 24 hour,0.00%
same,The portion of dead animals,"model of Crohn's disease; 50 mg/kg, 1 time per day, TNBS, 7 days, 10 animals",30%
same,decrease of the death of animals,model of Crohn's disease; summary of Table 4,more than 2 times
same,The gain of the thickness of the back skin to the thickness before the start of the study,[6]; day 10,23.1%
same,The gain of the thickness of the back skin to the thickness before the start of the study,[6]; day 12,19.9%
same,The gain of the thickness of the back skin to the thickness before the start of the study,[6]; day 13,20.5%
same,The gain of the thickness of the back skin to the thickness before the start of the study,[6]; day 15,22.4%
same,reduction of the gain of the thickness of the skin fold of the affected skin area,[6]; summary of table 2,2 times
same,IC50,[7],8.4 µM
